Assay results reported in patent US7704995B2 (Exelixis, Inc., priority 2003, dated 2010).
pIC50: −log10 of the molar value.

The molecules below were run against T1, Chk1 (Homo sapiens, UniProt O14757) (assay: Chk1 kinase assay: incorporation of γ-33P ATP into immobilized myelin basic protein). Settings: Table 11, Chk1 only; class symbols A-D; read-out: Chk1 IC50.
T1 construct: purchased Upstate Biotechnology
T1 sequence (O14757 1-476): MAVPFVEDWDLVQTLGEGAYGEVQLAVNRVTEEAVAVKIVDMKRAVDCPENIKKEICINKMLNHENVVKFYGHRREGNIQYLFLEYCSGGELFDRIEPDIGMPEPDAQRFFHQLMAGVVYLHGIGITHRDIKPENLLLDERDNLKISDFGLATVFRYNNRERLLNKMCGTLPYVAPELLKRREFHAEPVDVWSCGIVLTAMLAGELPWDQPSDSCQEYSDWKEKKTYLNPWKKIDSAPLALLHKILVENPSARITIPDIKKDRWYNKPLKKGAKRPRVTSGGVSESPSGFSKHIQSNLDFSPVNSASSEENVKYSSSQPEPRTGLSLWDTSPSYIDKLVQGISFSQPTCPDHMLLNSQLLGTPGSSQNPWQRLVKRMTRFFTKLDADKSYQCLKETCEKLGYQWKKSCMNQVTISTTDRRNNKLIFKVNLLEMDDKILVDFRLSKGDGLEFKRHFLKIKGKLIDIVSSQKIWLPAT
Format: biochemical
Procedure, shortened: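 Enzyme activity is measured as γ-33P transfer from ATP onto immobilized MBP over 1 h at room temperature, with Chk1 at 10 nM/10 μM unlabeled ATP and Chk2 at 20 nM/30 μM unlabeled ATP. Compounds are tested in 1% DMSO.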

Row | SMILES | pIC50
1 | CSc1ccc(CNC(=O)c2cccc(-c3cnc(N)c(C(=O)N[C@H]4CCCNC4)n3)c2)cc1 [Example 864, 3-amino-6-{3-[({[4-(methylthio)phenyl]methyl}amino)carbonyl]phenyl}-N-[(3S)-piperidin-3-yl]pyrazine-2-carboxamide] | > 7.30
2 | Nc1ncc(-c2cccc(C(=O)NCc3ccc(F)c(F)c3)c2)nc1C(=O)N[C@H]1CCCNC1 [Example 1011, 3-amino-6-[3-({[(3,4-difluorophenyl)methyl]amino}carbonyl)phenyl]-N-[(3S)-piperidin-3-yl]pyrazine-2-carboxamide] | > 7.30
3 | Nc1ncc(-c2cccc(C(=O)NCc3cccc(Cl)c3F)c2)nc1C(=O)N[C@H]1CCCNC1 [Example 997, 3-amino-6-[3-({[(3-chloro-2-fluorophenyl)methyl]amino}carbonyl)phenyl]-N-[(3S)-piperidin-3-yl]pyrazine-2-carboxamide] | > 7.30
4 | Nc1ncc(-c2cccc(C(=O)NCc3ccc4ccccc4c3)c2)nc1C(=O)N[C@H]1CCCNC1 [Example 851, 3-amino-6-(3-{[(naphthalen-2-ylmethyl)amino]carbonyl}phenyl)-N-[(3S)-piperidin-3-yl]pyrazine-2-carboxamide] | > 7.30
5 | COc1cccc(OC)c1CNC(=O)c1cccc(-c2cnc(N)c(C(=O)N[C@H]3CCCNC3)n2)c1 [Example 1026, 3-amino-6-{3-[({[2,6-bis(methyloxy)phenyl]methyl}amino)carbonyl]phenyl}-N-[(3S)-piperidin-3-yl]pyrazine-2-carboxamide] | 6.00 to 7.30

The next lines start with the values.

Row | pIC50 | SMILES
6 | > 7.30 | Nc1ncc(-c2cccc(C(=O)NCc3ccc(Cl)c(Cl)c3)c2)nc1C(=O)N[C@H]1CCNC1 [Example 826, 3-amino-6-[3-({[(3,4-dichlorophenyl)methyl]amino}carbonyl)phenyl]-N-[(3S)-pyrrolidin-3-yl]pyrazine-2-carboxamide]
7 | > 7.30 | Nc1ncc(-c2cccc(C(=O)N[C@H]3c4ccccc4C[C@@H]3O)c2)nc1C(=O)N[C@H]1CCCCNC1 [Example 970, 3-amino-N-[(3S)-azepan-3-yl]-6-[3({[(1S,2S)-2-hydroxy-2,3-dihydro-1H-inden-1-yl]amino}carbonyl)phenyl]pyrazine-2-carboxamide]

Same assay, conditions: Table 11; Chk1 only; read-out: Chk1 IC50

Row | SMILES | pIC50
8 | CNC(=O)c1nc(-c2cnc3ccccc3c2)cnc1N [Example 503, 3-amino-N-methyl-6-quinolin-3-ylpyrazine-2-carboxamide] | 5.00 to 6.00
9 | CNC(=O)c1nc(-c2cc(C(=O)O)cc(C(=O)OC)c2)cnc1N [Example 789, 3-{5-amino-6-[(methylamino)carbonyl]pyrazin-2-yl}-5-[(methyloxy)carbonyl]benzoic acid] | 5.00 to 6.00
10 | Nc1ncc(-c2cccc(C(=O)NCc3ccccc3)c2)nc1C(=O)N[C@H](Cc1ccc(O)cc1)C(=O)O [Example 611, N-{[3-amino-6-(3-{[(phenylmethyl)amino]carbonyl}phenyl)pyrazin-2-yl]carbonyl}-D-tyrosine] | ≤ 5.00

The next lines start with the values.

Row | pIC50 | SMILES
11 | ≤ 5.00 | CN(C)c1ccc(NC(=O)NCCNC(=O)c2nc(-c3cccc(C(=O)NCc4ccccc4)c3)cnc2N)cc1 [Example 691, 3-amino-N-{2-[({[4-(dimethylamino)phenyl]amino}carbonyl)amino]ethyl}-6-(3-{[(phenylmethyl)amino]carbonyl}phenyl)pyrazine-2-carboxamide]
12 | 5.00 to 6.00 | CN(C)c1ccc(CN2CC[C@H](NC(=O)c3nc(-c4cccc(C(=O)NCc5ccccc5)c4)cnc3N)C2)cc1 [Example 690, 3-amino-N-((3S)-1-{[4-(dimethylamino)phenyl]methyl}pyrrolidin-3-yl)-6-(3-{[(phenylmethyl)amino]carbonyl}phenyl)pyrazine-2-carboxamide]
13 | ≤ 5.00 | Nc1ncc(-c2cccc(C(=O)NCc3ccccc3)c2)nc1C(=O)c1cccc(F)c1 [Example 560, 3-{5-amino-6-[(3-fluorophenyl)carbonyl]pyrazin-2-yl}-N-(phenylmethyl)benzamide]
14 | ≤ 5.00 | Nc1ncc(-c2cccc(C(=O)NCc3ccccc3)c2)nc1-c1nc(-c2ccccc2)n(-c2ccccc2)n1 [Example 670, 3-[5-amino-6-(1,5-diphenyl-1H-1,2,4-triazol-3-yl)pyrazin-2-yl]-N-(phenylmethyl)benzamide]
15 | ≤ 5.00 | COC(=O)[C@@H]1CCCN1C(=O)c1nc(-c2cccc(C(=O)NCc3ccccc3)c2)cnc1N [Example 590, methyl 1-{[3-amino-6-(3-{[(phenylmethyl)amino]carbonyl}phenyl)pyrazin-2-yl]carbonyl}-L-prolinate]

Same assay, conditions: read-out: Chk1 IC50

Row | SMILES | pIC50
16 | CNC(=O)c1nc(-c2cccc(C(=O)NCc3ccc(C(C)C)cc3)c2)cnc1N [Example 345, 3-amino-N-methyl-6-{3-[({[4-(1-methylethyl)phenyl]methyl}amino)carbonyl]phenyl}pyrazine-2-carboxamide] | 6.00 to 7.30
17 | CCOC(=O)Nc1cccc(-c2cnc(N)c(C(=O)NC)n2)c1 [Example 319, ethyl (3-{5-amino-6-[(methylamino)carbonyl]pyrazin-2-yl}phenyl)carbamate] | 6.00 to 7.30
18 | CNC(=O)c1nc(-c2cccc(CNCc3ccc(-c4cccs4)cc3)c2)cnc1N [Example 422, 3-amino-N-methyl-6-{3-[({[4-(2-thienyl)phenyl]methyl}amino)methyl]phenyl}pyrazine-2-carboxamide] | > 7.30
19 | CNC(=O)c1nc(-c2cccc(OCCN3CCCC3)c2)cnc1N [Example 191, 3-amino-N-methyl-6-{3-[(2-pyrrolidin-1-ylethyl)oxy]phenyl}pyrazine-2-carboxamide] | 6.00 to 7.30
20 | CNC(=O)c1nc(-c2cccc(NC(=O)Cc3ccc(Cl)cc3)c2)cnc1N [Example 155, 3-amino-6-(3-{[(4-chlorophenyl)acetyl]amino}phenyl)-N-methylpyrazine-2-carboxamide] | 6.00 to 7.30
21 | CNC(=O)c1nc(-c2cccc(CNCc3cc(Cl)ccc3Cl)c2)cnc1N [Example 408, 3-amino-6-[3-({[(2,5-dichlorophenyl)methyl]amino}methyl)phenyl]-N-methylpyrazine-2-carboxamide] | 6.00 to 7.30
22 | CNC(=O)c1nc(-c2cccc(C(=O)N[C@@H]3CCc4ccccc43)c2)cnc1N [Example 96, 3-amino-6-(3-{[(1R)-2,3-dihydro-1H-inden-1-ylamino]carbonyl}phenyl)-N-methylpyrazine-2-carboxamide] | 5.00 to 6.00
23 | CNC(=O)c1nc(-c2cccc(CO)c2)cnc1N [Example 57, 3-amino-6-[3-(hydroxymethyl)phenyl]-N-methylpyrazine-2-carboxamide] | 6.00 to 7.30

The remaining lines, values ahead:

Row | pIC50 | SMILES
24 | 5.00 to 6.00 | CNC(=O)c1nc(-c2cccc(C(=O)N[C@@H]3CCC[C@H]3OCc3ccccc3)c2)cnc1N [Example 163, 3-amino-N-methyl-6-{3-[({(1R,2R)-2-[(phenylmethyl)oxy]cyclopentyl}amino)carbonyl]phenyl}pyrazine-2-carboxamide]
25 | 5.00 to 6.00 | CNC(=O)c1nc(-c2cccc(NS(C)(=O)=O)c2)cnc1N [Example 82, 3-amino-N-methyl-6-{3-[(methylsulfonyl)amino]phenyl}pyrazine-2-carboxamide]
26 | 6.00 to 7.30 | CNC(=O)c1nc(-c2cccc(CNC(=O)c3ccc4c(c3)OCO4)c2)cnc1N [Example 352, 3-amino-6-(3-{[(1,3-benzodioxol-5-ylcarbonyl)amino]methyl}phenyl)-N-methylpyrazine-2-carboxamide]
